Results reported in patent publication US20240208992A1, “MACROCYCLES AS CFTR MODULATORS” (Idorsia Pharmaceuticals Ltd, priority 2021, published 2024).

Target: human F508del-CFTR (Homo sapiens, UniProt P13569, DEL508-508)
Experiment: F508del-CFTR cell surface expression (corrector activity), DiscoveRx ß-galactosidase complementation chemiluminescence assay in recombinant U2OS cell line;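 note: U2OS cells co-expressing ProLink-tagged F508del-CFTR and a membrane-anchored enzyme acceptor, where more surface CFTR restores β-galactosidase activity measured by chemiluminescence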
Conditions: for EC50: EC50, F508del-CFTR cell surface expression; for Emax: U2OS
[1] = U2OS cells, 16h compound incubation, geomean values
[2] = in relation to Emax of corrector lumacaftor (=100%), arithmetic mean values
[3] = U2OS cell line, 16h compound incubation, geomean values
[4] = in relation to the Emax of the corrector lumacaftor (=100%), U2OS cell line, 16h compound incubation, arithmetic mean values
[5] = U2OS cells, 16h compound incubation, geomean of several measurements
[6] = in relation to the Emax of the corrector lumacaftor (=100%), U2OS cells, 16h compound incubation, arithmetic mean

Chain of human F508del-CFTR (P13569 with tags, fused parts or gaps DEL508-508): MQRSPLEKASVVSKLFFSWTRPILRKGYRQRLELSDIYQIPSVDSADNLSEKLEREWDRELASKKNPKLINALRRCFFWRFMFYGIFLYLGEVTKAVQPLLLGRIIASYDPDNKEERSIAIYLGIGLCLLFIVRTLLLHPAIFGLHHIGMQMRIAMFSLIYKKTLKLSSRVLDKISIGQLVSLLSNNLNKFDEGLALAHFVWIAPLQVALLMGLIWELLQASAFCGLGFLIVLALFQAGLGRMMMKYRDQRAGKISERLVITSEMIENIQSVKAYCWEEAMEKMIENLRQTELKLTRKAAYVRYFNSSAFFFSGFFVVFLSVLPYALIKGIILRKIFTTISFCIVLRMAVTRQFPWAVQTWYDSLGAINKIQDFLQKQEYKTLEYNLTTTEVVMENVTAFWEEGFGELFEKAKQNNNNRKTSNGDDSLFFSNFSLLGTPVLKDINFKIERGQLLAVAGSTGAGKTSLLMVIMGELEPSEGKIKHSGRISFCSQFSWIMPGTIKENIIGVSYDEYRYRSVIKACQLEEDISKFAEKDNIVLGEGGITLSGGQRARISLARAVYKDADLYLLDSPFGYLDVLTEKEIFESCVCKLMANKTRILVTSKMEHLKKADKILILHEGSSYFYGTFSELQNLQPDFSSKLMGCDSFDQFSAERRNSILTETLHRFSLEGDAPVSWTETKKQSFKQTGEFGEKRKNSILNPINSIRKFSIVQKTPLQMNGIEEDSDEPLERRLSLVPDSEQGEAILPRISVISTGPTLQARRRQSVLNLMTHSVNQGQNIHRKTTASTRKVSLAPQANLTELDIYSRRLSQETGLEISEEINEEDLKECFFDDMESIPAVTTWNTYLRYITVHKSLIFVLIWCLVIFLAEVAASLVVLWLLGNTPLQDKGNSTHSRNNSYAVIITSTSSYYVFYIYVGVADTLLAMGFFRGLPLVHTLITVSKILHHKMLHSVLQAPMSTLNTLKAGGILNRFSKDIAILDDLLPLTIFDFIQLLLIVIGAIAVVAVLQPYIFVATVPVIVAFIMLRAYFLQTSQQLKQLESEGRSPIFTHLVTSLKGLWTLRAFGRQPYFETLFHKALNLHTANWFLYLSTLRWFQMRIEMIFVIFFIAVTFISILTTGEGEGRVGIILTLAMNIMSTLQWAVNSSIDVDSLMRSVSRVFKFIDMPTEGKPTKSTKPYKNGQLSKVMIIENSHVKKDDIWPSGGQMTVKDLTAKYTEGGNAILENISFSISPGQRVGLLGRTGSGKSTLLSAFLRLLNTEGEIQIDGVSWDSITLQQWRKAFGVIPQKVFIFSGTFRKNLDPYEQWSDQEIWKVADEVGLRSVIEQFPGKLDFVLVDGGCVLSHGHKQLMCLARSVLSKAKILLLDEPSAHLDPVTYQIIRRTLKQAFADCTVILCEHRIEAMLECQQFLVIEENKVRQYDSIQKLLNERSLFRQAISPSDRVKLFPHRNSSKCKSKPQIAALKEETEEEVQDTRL

| Compound | EC50 [3] | Emax [4] | also measured |
| --- | --- | --- | --- |
| COCCS(=O)(=O)N1CCN2C(=O)[C@H](CC(C)C)N(C)C(=O)C[C@@H](C(=O)NCCc3cccc(OC)c3)NC(=O)c3c(ccc4ccccc34)OC[C@@H](Cc3ccccc3)NC(=O)[C@H]2C1 [Example 733, (4aR,7R,18S,22S)-7-benzyl-22-isobutyl-3-((2-methoxyethyl)sulfonyl)-N-(3-methoxyphenethyl)-21-methyl-5,16,20,23-tetraoxo-2,3,4,4a,5,6,7,8,16,17,18,19,20,21,22,23-hexadecahydro-1H-naphtho[1,2-p]pyrazino[2,1-f][1]oxa[4,7,10,14]tetraazacycloheptadecine-18-carboxamide] |  |  | EC50 [1]: 0.349 µM; Emax [2]: 235% |
| COc1cc2c(cc1OC)C(=O)N[C@H](C(=O)NCCc1ccc3c(c1)OCO3)CC(=O)N(C)[C@@H](CC(C)C)C(=O)N(CC[C@H]1CCCCO1)CC(=O)N[C@H](Cc1ccccc1)CO2 (racemic) [Example 155, (3R,9S,13S)-N-(2-(benzo[d][1,3]dioxol-5-yl)ethyl)-3-benzyl-9-isobutyl-17,18-dimethoxy-10-methyl-5,8,11,15-tetraoxo-7-(2-((RS)-tetrahydro-2H-pyran-2-yl)ethyl)-2,3,4,5,6,7,8,9,10,11,12,13,14,15-tetradecahydrobenzo[p][1]oxa[4,7,10,14]tetraazacycloheptadecine-13-carboxamide] | 0.26 µM | 144% |  |
| Cc1ccc2c(c1)C(=O)N[C@H](C(=O)NCCc1ccc3c(c1)OCO3)CC(=O)N(C)[C@@H](CC(C)C)C(=O)N(C)CC(=O)N[C@H](Cc1ccccc1)CO2 [Example 229, (3R,9S,13S)-N-(2-(benzo[d][1,3]dioxol-5-yl)ethyl)-3-benzyl-9-isobutyl-7,10,17-trimethyl-5,8,11,15-tetraoxo-2,3,4,5,6,7,8,9,10,11,12,13,14,15-tetradecahydrobenzo[p][1]oxa[4,7,10,14]tetraazacycloheptadecine-13-carboxamide] | 0.279 µM | 117% |  |
| COc1cc(CCNC(=O)[C@@H]2CC(=O)N(C)[C@@H](CC(C)C)C(=O)N(C)[C@H](CC3CC3)C(=O)N[C@H](Cc3ccccc3)COc3cc(C)nc(OC)c3C(=O)N2)on1 [Example 979, (3R,6R,9S,13S)-3-benzyl-6-(cyclopropylmethyl)-9-isobutyl-16-methoxy-N-(2-(3-methoxyisoxazol-5-yl)ethyl)-7,10,18-trimethyl-5,8,11,15-tetraoxo-2,3,4,5,6,7,8,9,10,11,12,13,14,15-tetradecahydropyrido[3,4-p][1]oxa[4,7,10,14]tetraazacycloheptadecine-13-carboxamide] |  |  | EC50 [5]: 0.209 µM; Emax [6]: 394% |
| CC(C)C[C@H]1C(=O)N2CCN(c3ccccc3)C[C@H]2C(=O)N[C@H](Cc2ccccc2)COc2cnc3ccc(F)cc3c2C(=O)N[C@H](C(=O)NCCc2nc(C3CC3)no2)CC(=O)N1C [Example 525, (9S,13S,19aR,22R)-22-benzyl-N-(2-(3-cyclopropyl-1,2,4-oxadiazol-5-yl)ethyl)-5-fluoro-13-isobutyl-12-methyl-7,11,14,20-tetraoxo-18-phenyl-7,8,9,10,11,12,13,14,17,18,19,19a,20,21,22,23-hexadecahydro-16H-pyrazino[2′,11:6,7][1]oxa[4,7,10,14]tetraazacycloheptadecino[17,16-c]quinoline-9-carboxamide] |  |  | EC50 [1]: 0.056 µM; Emax [2]: 288% |
| COc1cccc(CCNC(=O)[C@@H]2CC(=O)N(C)[C@@H](CC(C)C)C(=O)N3CCN([S@@](=N)(=O)c4ccccc4)C[C@@H]3C(=O)N[C@H](Cc3ccccc3)COc3ccc4ccccc4c3C(=O)N2)c1 [Example 758, (4aR,7R,18S,22S)-7-Benzyl-22-isobutyl-N-(3-methoxyphenethyl)-21-methyl-5,16,20,23-tetraoxo-3-(phenylsulfonimidoyl)-2,3,4,4a,5,6,7,8,16,17,18,19,20,21,22,23-hexadecahydro-1H-naphtho[1,2-p]pyrazino[2,1-f][1]oxa[4,7,10,14]tetraazacycloheptadecine-18-carboxamide] |  |  | EC50 [1]: 0.334 µM; Emax [2]: 266% |
| COc1ccc(CCNC(=O)[C@@H]2CC(=O)N(C)[C@@H](CC(C)C)C(=O)N(C)[C@H](Cc3nc(-c4ccc(F)cn4)no3)C(=O)N[C@H](Cc3ccccc3)COc3cnc4ccc(F)cc4c3C(=O)N2)nc1 [Example 847, (3S,7S,10R,13R)-13-benzyl-20-fluoro-10-((3-(5-fluoropyridin-2-yl)-1,2,4-oxadiazol-5-yl)methyl)-7-isobutyl-N-(2-(5-methoxypyridin-2-yl)ethyl)-6,9-dimethyl-1,5,8,11-tetraoxo-1,2,3,4,5,6,7,8,9,10,11,12,13,14-tetradecahydro-[1]oxa[4,7,10,14]tetraazacycloheptadecino[17,16-c]quinoline-3-carboxamide] |  |  | EC50 [5]: 0.186 µM; Emax [6]: 340% |
| COc1cccc(CCNC(=O)[C@@H]2CC(=O)N(C)[C@@H](CC(C)C)C(=O)N(C)CC(=O)N[C@H](Cc3ccccc3)COc3ccc(Cl)cc3C(=O)N2)c1 [Example 237, (3R,9S,13S)-3-benzyl-17-chloro-9-isobutyl-N-(3-methoxyphenethyl)-7,10-dimethyl-5,8,11,15-tetraoxo-2,3,4,5,6,7,8,9,10,11,12,13,14,15-tetradecahydrobenzo[p][1]oxa[4,7,10,14]tetraazacycloheptadecine-13-carboxamide] | 0.3 µM | 128% |  |
| COc1cccc(CCNC(=O)[C@@H]2CC(=O)N(C)[C@@H](CC(C)C)C(=O)N(C)C3(CC3)C(=O)N[C@H](Cc3ccccc3)COc3ccc4ccccc4c3C(=O)N2)c1 [Example 385, (3′S,7′S,13′R)-13′-benzyl-7′-isobutyl-N-(3-methoxyphenethyl)-6′,9′-dimethyl-1′,5′,8′,11′-tetraoxo-2′,3′,4′,5′,6′,7′,8′,9′,11′,12′,13′,14′-dodecahydro-1′H-spiro[cyclopropane-1,10′-naphtho[1,2-p][1]oxa[4,7,10,14]tetraazacycloheptadecine]-3′-carboxamide] | 0.191 µM | 326% |  |
| COCC[C@@H]1C(=O)N[C@H](Cc2ccccc2)COc2cnc3ccccc3c2C(=O)N[C@H](C(=O)NCCc2cc(C)no2)CC(=O)N(C)[C@@H](CC(C)C)C(=O)N1C [Example 566, (3S,7S,10R,13R)-13-benzyl-7-isobutyl-10-(2-methoxyethyl)-6,9-dimethyl-N-(2-(3-methylisoxazol-5-yl)ethyl)-1,5,8,11-tetraoxo-1,2,3,4,5,6,7,8,9,10,11,12,13,14-tetradecahydro-[1]oxa[4,7,10,14]tetraazacycloheptadecino[17,16-c]quinoline-3-carboxamide] |  |  | EC50 [1]: 0.703 µM; Emax [2]: 278% |

The next lines start with results.

| EC50 [3] | Emax [4] | Compound | also measured |
| --- | --- | --- | --- |
| 0.598 µM | 246% | Cc1oncc1CCNC(=O)[C@@H]1CC(=O)N(C)[C@@H](CC(C)C)C(=O)N2CCCC[C@@H]2C(=O)N[C@H](Cc2ccccc2)COc2cnc3ccccc3c2C(=O)N1 [Example 82, (9S,13S,19aR,22R)-22-benzyl-13-isobutyl-12-methyl-N-(2-(5-methylisoxazol-4-yl)ethyl)-7,11,14,20-tetraoxo-7,8,9,10,11,12,13,14,17,18,19,19a,20,21,22,23-hexadecahydro-16H-pyrido[2′,1′:6,7][1]oxa[4,7,10,14]tetraazacycloheptadecino[17,16-c]quinoline-9-carboxamide] |  |
| 0.255 µM | 141% | COc1cccc(OCCNC(=O)[C@@H]2CC(=O)N(C)[C@@H](CC(C)C)C(=O)N3CCOC[C@@H]3C(=O)N[C@H](Cc3ccccc3)COc3ccc4ccccc4c3C(=O)N2)c1 [Example 33, (4aR,7R,18S,22S)-7-benzyl-22-isobutyl-N-(2-(3-methoxyphenoxy)ethyl)-21-methyl-5,16,20,23-tetraoxo-1,2,4,4a,5,6,7,8,16,17,18,19,20,21,22,23-hexadecahydronaphtho[1,2-p][1,4]oxazino[3,4-f][1]oxa[4,7,10,14]tetraazacycloheptadecine-18-carboxamide] |  |
| 0.149 µM | 213% | CC(C)C[C@H]1C(=O)N(C)C2(CC2)C(=O)N[C@H](Cc2ccccc2)COc2cnc3ccc(F)cc3c2C(=O)N[C@H](C(=O)NCCc2ccc(-c3cnccn3)cc2)CC(=O)N1C [Example 133, (3′S,7′S,13′R)-13′-benzyl-20′-fluoro-7′-isobutyl-6′,9′-dimethyl-1′,5′,8′,11′-tetraoxo-N-(4-(pyrazin-2-yl)phenethyl)-2′,3′,4′,5′,6′,7′,8′,9′,11′,12′,13′,14′-dodecahydro-1′H-spiro[cyclopropane-1,10′-[1]oxa[4,7,10,14]tetraazacycloheptadecino[17,16-c]quinoline]-3′-carboxamide] |  |
| 0.207 µM | 154% | CN1C(=O)C[C@@H](C(=O)NCCc2ccc3c(c2)OCO3)NC(=O)c2c(ccc3ccccc23)OC[C@@H](Cc2ccccc2)NC(=O)CN(C[C@H]2CCCCO2)C(=O)[C@@H]1CC1CCCCC1 (racemic) [Example 287, (3RS,7S,13R)-N-(2-(benzo[d][1,3]dioxol-5-yl)ethyl)-13-benzyl-7-(cyclohexylmethyl)-6-methyl-1,5,8,11-tetraoxo-9-(((R)-tetrahydro-2H-pyran-2-yl)methyl)-1,2,3,4,5,6,7,8,9,10,11,12,13,14-tetradecahydronaphtho[1,2-p][1]oxa[4,7,10,14]tetraazacycloheptadecine-3-carboxamide] |  |
| 0.339 µM | 231% | CC(C)C[C@H]1C(=O)N(CCC2CCCCC2)CC(=O)N[C@H](Cc2ccccc2)COc2ccncc2C(=O)N[C@H](C(=O)NCCc2ccc3c(c2)OCC3)CC(=O)N1C [Example 262, (3R,9S,13S)-3-benzyl-7-(2-cyclohexylethyl)-N-(2-(2,3-dihydrobenzofuran-6-yl)ethyl)-9-isobutyl-10-methyl-5,8,11,15-tetraoxo-2,3,4,5,6,7,8,9,10,11,12,13,14,15-tetradecahydropyrido[3,4-p][1]oxa[4,7,10,14]tetraazacycloheptadecine-13-carboxamide] |  |
